From patent US20260015339A1, “CALIX[4]ARENES WITH HIGH ANTICANCER ACTIVITY” (UNIVERSITE GRENOBLE ALPES, priority 2023, published 2026)

Experiments:
[1] = test system: A549 human lung cancer cells; experiment: MTS cytotoxicity assay, combination with CuCl2, A549; conditions: Homo sapiens, A549, 72 h, read-out: percentage of cell viability
Experimental: A549 human lung cancer cells were seeded in 96-well plates together with the calix[4]arene of the formula (2) and CuCl2. Cells were grown in RPMI-1640 supplemented with GlutaMAX™ (Gibco™) and fetal calf serum (FCS, 10%) treated with a broad range of concentrations of the calix[4]arene of the formula (2) or/and CuCl2 from Merck. After 72 hours of treatment, the cytotoxicity was measured by means of the IC50 value, using the kit “CellTiter 96R AQuous One Solution Cell Proliferation Assay (MTS)” from Promega™. Following 30 minutes of incubation with the MTS reagent, the endpoint measurements were done in triplicate at 485 nm, using a fluorescence plate reader.

[2] = test system: H322 lung carcinoma cells; experiment: MTS cytotoxicity assay, combination with CuCl2, H322; conditions: NCI-H322, 72 h, read-out: percentage of cell viability
Experimental: H322 lung carcinoma cells were seeded in 96-well plates together with the calix[4]arene of the formula (2) and CuCl2. Cells were grown in RPMI-1640 supplemented with GlutaMAX™ (Gibco™) and fetal calf serum (FCS, 10%) treated with a broad range of concentrations of the calix[4]arene of the formula (2) or/and CuCl2 from Merck. After 72 hours of treatment, the cytotoxicity was measured by means of the IC50 value, using the kit “CellTiter 96R AQuous One Solution Cell Proliferation Assay (MTS)” from Promega™ Following 30 minutes of incubation with the MTS reagent, the endpoint measurements were done in triplicate at 485 nm, using a fluorescence plate reader.

[3] = test system: Candida albicans yeast cells; experiment: Minimal inhibitory concentration, yeast growth in 96 well plate; assay type: cell-based; conditions: in presence of 100 μM CuSO4, read-out: minimal inhibitory concentrations values
Experimental: The efficiency of a compound of interest on a bacterial strain is evaluated by measuring its minimal inhibitory concentration (hereafter abbreviated “MIC”). MICs are measured by following the bacterial growth in a 96 wells plate exposed to a range of concentrations of the compound of interest.
96 Well plates were filled with 20 μL of 1 mM CuSO4 solution, then 160 μL of growth media was added. Finally, 20 μL of DMSO solutions containing a range of concentrations of the tested calix[4]arene of the formula (2) was added. […] For each condition three wells were used. The top and bottom rows were used as control, the top row only contained Lysogeny broth and the bottom one contained the growth media, DMSO and CuSO4. The plates were placed in the incubator for 16 to 24 hours. The absorbance of each well was measured at 600 nm with a multiplate reader (Fluostar from Optima).
Additionally, the same protocol was repeated with Candida albican yeast cells. Instead of Lysogeny broth, Yeast Extract-Peptone-Dextrose (Bacteriological peptone, 20 g/L; Glucose, 20 g/L; Yeast extract, 10 g/L) was used as growing medium. […]

[4] = test system: H322 lung carcinoma cells; experiment: MTS cytotoxicity assay on H322; assay type: cell-based; conditions: NCI-H322; H322, 72 hours of treatment
Experimental: H322 lung carcinoma cells were seeded in 96-well plates together with the calix[4]arene of the formula (2). Cells were grown in RPMI-1640 supplemented with GlutaMAX™ (Gibco™) and fetal calf serum (FCS, 10%) and treated with a broad range of concentrations of the calix[4]arene of the formula (2). After 72 hours of treatment, the cytotoxicity was measured by means of the IC50 value, using the kit “CellTiter 96R AQuous One Solution Cell Proliferation Assay (MTS)” from Promega™. Following 30 minutes of incubation with the MTS reagent, the endpoint measurements were done in triplicate at 485 nm, using a fluorescence plate reader.
H322 lung carcinoma cells were seeded in 96-well plates together with the compound of the 2nd comparative example of the formula (XI). Cells were grown in RPMI-1640 supplemented with GlutaMAX™ (Gibco™) and fetal calf serum (FCS, 10%) and treated with a broad range of concentrations of the 2nd comparative example of the formula (XI). After 72 hours of treatment, the cytotoxicity was measured by means of the IC50 value, using the kit “CellTiter 96R AQuous One Solution Cell Proliferation Assay (MTS)” from Promega™. Following 30 minutes of incubation with the MTS reagent, the endpoint measurements were done in triplicate at 485 nm, using a fluorescence plate reader.
H322 lung carcinoma cells were seeded in 96-well plates together with the 1st comparative example of the formula (X). Cells were grown in RPMI-1640 supplemented with GlutaMAX™ (Gibco™) and fetal calf serum (FCS, 10%) and treated with a broad range of concentrations of the compound of the formula (X). After 72 hours of treatment, the cytotoxicity was measured by means of the IC50 value, using the kit “CellTiter 96R AQuous One Solution Cell Proliferation Assay (MTS)” from Promega™. Following 30 minutes of incubation with the MTS reagent, the endpoint measurements were done in triplicate at 485 nm, using a fluorescence plate reader.
H322 lung carcinoma cells were seeded in 96-well plates together with the tested calix[4]arenes. Cells were grown in RPMI-1640 supplemented with GlutaMAX™ (Gibco™) and fetal calf serum (FCS, 10%) and treated with a broad range of concentrations of the tested calix[4]arenes. After 72 hours of treatment, the cytotoxicity was measured by means of the IC50 value, using the kit “CellTiter 96R AQuous One Solution Cell Proliferation Assay (MTS)” from Promega™. Following 30 minutes of incubation with the MTS reagent, the endpoint measurements were done in triplicate at 485 nm, using a fluorescence plate reader.

[5] = Cu^+ transport into liposomes with encapsulated BCS; conditions: POPC/cholesterol 7:3 LUVs, calix[4]arene to lipid 1:1000, 50 μM copper gradient, F/F0 after 600 s
Experimental: The ability of the examples of calix[4]arenes of the invention and the comparative examples to be delivered into a lipidic bilayer membrane of a liposome from a solution and their capacity to then act as a transporter of Cu^+ was evaluated using bathocuproine disulphonate (hereafter abbreviated “BCS”) encapsulated in large unilamellar vesicles (LUVs, also referred to as liposomes) composed of 1-palmitoyl-2-oleoyl-sn-glycero-3-phosphocholine and cholesterol in a 7:3 ratio.
BCS is a fluorescent water soluble phenantroline derivative that can be used as fluorescent dye for the sensing of Cu^+ through the formation of a non-fluorescent 2:1 complex.
Stock solution of lipids were prepared using deacidified CHCl3 and stored in a freezer. CHCl3 was deacidified by passing through activated basic alumina. The lipids used to prepare the liposomes were 2-oleoyl-1-palmitoyl-sn-glycero-3-phosphocholine (POPC), (purity ≥99%) and cholesterol (purity of 95%). 50 mM sodium phosphate buffer were prepared with Millipore water at pH 7 (±0.1) by mixing the solution of the mono- and the di-protonated phosphate salts. The solution of the dye (BCS) was prepared at 0.5 mM concentration in phosphate buffer.
The lipids solutions were mixed in different ratios in a 5 mL round bottom flask. The POPC/cholesterol molar ratio was 7:3 in all experiments. The total amount of lipids per batch varied depending on the amount of liposomes solution required for the experiment. After mixing the lipid solutions in a round bottom flask, the chloroform was evaporated under a gentle air flow and the resulting lipid film was dried at high vacuum for at least an hour. 500 μL of the BCS solution in phosphate buffer and a magnetic stir bar were added to the flask. The flask was then sonicated for 30 seconds and placed under magnetic agitation for at least an hour. The solution was frozen with liquid nitrogen and heated back to room temperature with warm water ten times to form large unilamellar vesicles (LUVs). The liposome solution was extruded 29 times, using an extrusion kit equipped with a membrane with 200 nm pores. Subsequently, the solution was eluted with the buffer solution used for the experiment through a size exclusion column (Sephadex G-25) to remove the external BCS and then diluted with phosphate buffer to obtain a concentration of 0.4 mM in lipids.
Solutions of the calix[4]arenes were prepared at a concentration of 0.24 mM in DMSO and 5 μL of the solution was added 2 minutes before each transport measurement.
Alternatively, calix[4]arenes were pre-incorporated by combining the calix[4]arene (dissolved in chloroform) with the lipids prior to the evaporation of the chloroform to obtain a lipid film. The concentrations and volumes were chosen to obtain a calix[4]arene to lipid of 1:1000.
Fluorescence measurements were performed with a Horiba FluoroMax 4 spectrometer using a 4-faced quartz cuvette (10 mm×10 mm). For the Cu^+ transport assay, the excitation was set at 278 nm and emission was recorded at 393 nm. These values correspond to the excitation and emission maxima of BCS encapsulated inside LUVs.
The Cu^+ solutions added to the liposomes were obtained by dissolving Cu(MeCN)4BF4 in MeCN at 15.25 mM concentration. The copper solution was then diluted by a factor 5 in a phosphate buffer during the first 30 seconds of the experiment to reach a copper concentration of 3.05 mM. 50 μL of the diluted copper solution was added to 3 mL of liposomes, resulting in a copper gradient of 50 μM. The fluorescence level was monitored for 600 seconds after the addition of the copper solution.
For each run the initial plateau and the initial vertical drop (due to the binding of the exterior dye with Cu^+ and the dilution, 1-4 seconds after the addition) were removed. Then the signal was normalised by dividing the fluorescence values (F) by the value at t=0 second (F0). […]

[6] = test system: A549 human lung cancer cells; experiment: MTS cytotoxicity assay on A549; assay type: cell-based; conditions: A549, 72 hours of treatment
Experimental: A549 human lung cancer cells were seeded in 96-well plates together with the calix[4]arene of the formula (2). Cells were grown in RPMI-1640 supplemented with GlutaMAX™ (Gibco™) and fetal calf serum (FCS, 10%) and treated with a broad range of concentrations of the calix[4]arene of the formula (2). After 72 hours of treatment, the cytotoxicity was measured by means of the IC50 value, using the kit “CellTiter 96R AQuous One Solution Cell Proliferation Assay (MTS)” from Promega™. Following 30 minutes of incubation with the MTS reagent, the endpoint measurements were done in triplicate at 485 nm, using a fluorescence plate reader.
A549 human lung cancer cells were seeded in 96-well plates together with the compound of the 2nd comparative example of the formula (XI). Cells were grown in RPMI-1640 supplemented with GlutaMAX™ (Gibco™) and fetal calf serum (FCS, 10%) and treated with a broad range of concentrations of the 2nd comparative example of the formula (XI). After 72 hours of treatment, the cytotoxicity was measured by means of the IC50 value, using the kit “CellTiter 96R AQuous One Solution Cell Proliferation Assay (MTS)” from Promega™. Following 30 minutes of incubation with the MTS reagent, the endpoint measurements were done in triplicate at 485 nm, using a fluorescence plate reader. […]

[7] = test system: Non-malignant HaCaT cells; experiment: MTS cytotoxicity assay on HaCaT; assay type: cell-based; conditions: Homo sapiens, 72 hours of treatment
Experimental: Non-malignant HaCaT cells were seeded in 96-well plates together with the calix[4]arene of the formula (2). Cells were grown in RPMI-1640 supplemented with GlutaMAX™ (Gibco™) and fetal calf serum (FCS, 20%) and treated with a broad range of concentrations of the calix[4]arene of the formula (2). After 72 hours of treatment, the cytotoxicity was measured by means of the IC50 value, using the kit “CellTiter 96R AQuous One Solution Cell Proliferation Assay (MTS)” from Promega™. Following 30 minutes of incubation with the MTS reagent, the endpoint measurements were done in triplicate at 485 nm, using a fluorescence plate reader.

CCCOc1c2cccc1Cc1cccc(c1OCc1nccn1C)Cc1cccc(c1OCCC)Cc1cccc(c1OCc1nccn1C)C2 [(2)]
viability at 0.1 µM [1]: 102%
viability at 0.5 µM [1]: 96.4%
viability at 1 µM [1]: 79.9%
viability at 1.5 µM [1]: 52.2%
viability at 0.1 µM [2]: 96.5%
viability at 0.5 µM [2]: 94.1%
viability at 1 µM [2]: 87%
viability at 1.5 µM [2]: 62.6%
MIC [3]: 0.8 µM
IC50 [4]: 1840 nM
Cu^+ transport [5]: Yes (means that a significant decrease of the fluorescence of encapsulated BCS was observed upon addition of Cu^+ to the liposomes (F/F0<0.65 after 600 s))
IC50 [6]: 1560 nM
IC50 [7]: 1050 nM
